Results published in US20250154525A1, “PLANT VIRUS MOVEMENT PROTEINS AND METHODS OF USING SAME” (Molecular Transfer, Inc., priority 2016, published 2025).

Columns and labels:
[1] = test system: HeLa Cells; assay: GFP plasmid transfection with DOTMA/DOPE plus surface ligand peptide, fluorescent plate reader (Example 1); format: cell-based; conditions: DOTMA/DOPE + peptide linked to R12 or K16; EF1Alpha eGFP plasmid; 42 hours
Protocol: (§1) Cells were plated to so that on the day of transfection the cells were 70% confluent in 96 well tissue culture plates. A DOMTA/DOPE Lipid solution (1:1 molar ratio) at 2 mg/mL in water were mixed with an equal volume cell surface ligand containing adhesion peptide, the plant virus movement protein, or peptide derived therefrom, that had the nucleic acid binding moiety RRRRRRRRRRRR (SEQ ID NO:109) or KKKKKKKKKKKKKKKK (SEQ ID NO: 102) covalently linked to the N-terminus, or C-terminus of each peptide during peptide synthesis. Peptides were at 2 mg/mL in water. The DOTMA/DOPE and the solution containing the cell surface ligand containing adhesion peptide, the plant virus movement protein, or peptide derived therefrom, surface ligand peptide the was diluted 1 to 1 (v/v) in water. DOMTA/DOPE/PEPTIDE solutions were added to 0.1 mL of a plasmid DNA solution (EF1Alpha eGFP plasmid) at 10 μg/mL in OptiMEM.
(§2) All solutions were at room temperature. A volume of 0.2 mL of a 10 μg/mL solution of DNA was aliquoted into each well of a non-tissue cultured treated plate. 1-12 μL of transfection reagents were added to DNA solutions respectively. The transfection reagent and DNA solution was mixed by pipetting up and down twice. Transfection complexes were formed for 10 minutes. After 10 minutes, 0.01 or 0.02 mL of the transfection complex was added to cells. HuVEC, HeLa, human adult keratinocytes, human primary adult fibroblast, and A549 cells all respectively received 0.01 mL of the transfection complex. Human skeletal muscle cells, mouse C2C12 cells, and Jurkat, cells received 0.02 mL of the transfection complex. Cells were incubated for 42 hours at 37° C. at 5% CO2. Plates were read on a fluorescent plate reader. Cells were also examined visually under a microscope to assess the extent of transfection (in terms of the percent of cells transfected) with a fluorescent microscope. Other modes of analysis, for example quantification with B-galactocidase or luciferase reports plasmids can also be used.
(§3) Surface ligand that caused increase expression of GFP over the lipid DOTMA with no surface ligand were considered to enhance transfection or had higher % cells transfected were considered to enhance transfection. Peptides that gave greater than 2-fold enhancement are noted in bold and could be further optimized by adding different transfection enhancers or could be used with different cationic lipids or polymers.
(§4) Tables 2-7, below, provide the results of the transfection enhancements with the various cell types, while Table 8 lists the peptides that were determined by visual inspection to enhance the transfection of the denoted cell lines over the lipid DOTMA.

[2] = test system: HuVec Cells; assay: as above; format: cell-based; conditions: DOTMA/DOPE + peptide linked to R12 or K16; EF1Alpha eGFP plasmid; 42 hours
Protocol: as §1, §2, §3, §4

[3] = test system: Human Fibroblast Cells; assay: as above; format: cell-based; conditions: DOTMA/DOPE + peptide linked to R12 or K16; EF1Alpha eGFP plasmid; 42 hours
Protocol: as §1, §2, §3, §4

[4] = test system: Jurkat Cells; assay: as above; format: cell-based; conditions: DOTMA/DOPE + peptide linked to R12 or K16; EF1Alpha eGFP plasmid; 42 hours
Protocol: as §1, §2, §3, §4

[5] = test system: NL-1 iPS Cells; assay: as above; format: cell-based; conditions: DOTMA/DOPE + peptide linked to R12 or K16; EF1Alpha eGFP plasmid; 42 hours
Protocol: as §1, §2, §3, §4

[6] = test system: C2C12 Cells; assay: as above; format: cell-based, mouse; conditions: DOTMA/DOPE + peptide linked to R12 or K16; EF1Alpha eGFP plasmid; 42 hours
Protocol: as §1, §2, §3, §4

[7] = test system: HeLa Cells; assay: GFP transfection with DOTMA/SEQ ID NO: 72 (fusogenic peptide)/peptide compared with Lipofectamine 2000; format: cell-based
Protocol: as §1, §2
The fusogenic peptide was added to the DOMTA/peptide formulation to achieve a final concentration of 0.1 mg/mL to see if transfection reagents were further enhanced by the addition of a fusogenic peptide and could provide higher transfection efficiency into HeLa cells and expression than the commercially available Lipofectamine 2000.

[8] = test system: some examined cell types; assay: Summary of Example 1: transfection expression and % cells transfected over the no peptide control; format: cell-based; conditions: on some examined cell types
Protocol: as §1, §2, §3

[9] = 0.1 μL of DOTMA/SEQ ID NO: 72/Peptide in well of a 96 well plate
[10] = 0.2 μL of DOTMA/SEQ ID NO: 72/Peptide in well of a 96 well plate
[11] = 0.3 μL of DOTMA/SEQ ID NO: 72/Peptide in well of a 96 well plate
[12] = 0.4 μL of DOTMA/SEQ ID NO: 72/Peptide in well of a 96 well plate

Row | Substance | Relative Fluorescence of Transfection of HeLa Cells (RF) [1] | Relative Fluorescence of Transfection of HuVec Cells (RF) [2] | Relative Fluorescence of Transfection of Human Fibroblast Cells (RF) [3] | Relative Fluorescence of Transfection of Jurkat Cells (RF) [4] | Relative Fluorescence of Transfection of NL-1 iPS Cells (RF) [5] | Relative Fluorescence of Transfection of C2C12 Cells (RF) [6] | Relative Fluorescence DOTMA/SEQ ID NO: 72/Peptide, HeLa Cells (RF) [7, 9] | Relative Fluorescence DOTMA/SEQ ID NO: 72/Peptide, HeLa Cells (RF) [7, 10] | Relative Fluorescence DOTMA/SEQ ID NO: 72/Peptide, HeLa Cells (RF) [7, 11] | Relative Fluorescence DOTMA/SEQ ID NO: 72/Peptide, HeLa Cells (RF) [7, 12] | transfection expression and % cells transfected over the no peptide control [8]
1 | 348 (HQQDLGTAGSCLRKFSTM) [compound 348] | 22289 | 21214 | 11802 | 15585 | 21645 | 8625 | 17413 | 18615 | 16164 | 15054 | increased transfection expression and the % cells transfected
2 | 328 (NWRHISYITRFG) [compound 328] | 32528 | 3614 | 5641 | 4770 | 8611 | 5507 | 11037 | 12229 | 10801 | 10951 | increased transfection expression and the % cells transfected
3 | 347 (DLGTAGSCLRKFSTM) [compound 347] | 22527 | 20728 | 9255 | 17720 | 21865 | 4457 | 23188 | 21493 | 16814 | 14140 | increased transfection expression and the % cells transfected
4 | 357 (SETTVKYIFRLHE) [compound 357] | 22679 | 6009 | 7167 | 2256 | 15624 | 4506 | 7718 | 11798 | 9229 | 9107 | increased transfection expression and the % cells transfected
5 | 367 (TDIPPCPHGWISLWK) [compound 367] | 39008 | 13354 | 10036 | 4365 | 17545 | 16207 | 10427 | 21411 | 23001 | 17529 | increased transfection expression and the % cells transfected
6 | 332 (TWYKIAFQRNRK) [compound 332] | 9198 | 4221 | 5178 | 3052 | 8725 | 537 |  |  |  |  | increased transfection expression and the % cells transfected
7 | 220 (ATETTITIS) [compound 220] | 9398 | 8737 | 4516 | 6428 | 15892 | 1470 |  |  |  |  | increased transfection expression and the % cells transfected
8 | 327 (VAEIDGIEL) [compound 327] | 5345 | 21018 | 4662 | 14546 | 31383 | 2043 |  |  |  |  | increased transfection expression and the % cells transfected
9 | 229 (PPFLMLLKGSTR) [compound 229] | 8816 | 5452 | 6811 | 8079 | 13491 | 1164 |  |  |  |  | increased transfection expression and the % cells transfected
10 | 361 (YIGSR) [compound 361] | 3698 | 6017 | 7014 | 7006 | 9363 | 585 |  |  |  |  | increased transfection expression and the % cells transfected
